In EPA's ToxValDB 9.5:
“And” between values parts separate entries of the source, which are not always exact repeats. Equal entries are not always repeated.

How the values were obtained:
[1] = tested on: Oryctolagus sp.; conditions: duration: 12 days, inhalation, New Zealand
[2] = tested on: Monkey; conditions: oral, Cynomolgus
[3] = tested on: Oryctolagus sp.; conditions: duration: 15 days, oral, F, New Zealand
[4] = reproduction developmental, F, generation: P0, P0: Developmental: Uterus: Implantation + P0: Developmental: Uterus: Pre-Implantation Loss + P0: Developmental: Uterus: Resorptions, Mean/…
[5] = reproduction developmental, F, generation: P0, P0: Developmental: Uterus: Resorptions, Mean/Litter + P0: General Toxicity: Whole Body: Body Weight Change + P0: General Toxicity: Whole …
[6] = reproduction developmental, F, generation: P0, P0: Whole Body: Clinical Observations
[7] = chronic, duration: 26 weeks, M/F, Endocrine: Increased TSH and decreased total T3 + Hepatic: 47-55% increased absolute liver weight / 50-60% decreased serum cholesterol / …
[8] = reproduction developmental, Body Weight: 21% decreased mean maternal body weight gain on GDs 7-21 / no effect on food consumption

## FC(Cl)C(F)(F)F (stereo unspecified) [2-Chloro-1,1,1,2-tetrafluoroethane]
[1]; developmental, M/F, generation: F1, F1: Developmental: Uterus: Dead Fetuses + F1: Developmental: Uterus: Fetuses, Live + F1: Developmental: Whole Body: Body Weight, Fetal + F1…
  NOAEL: 279000 mg/m3
[1]; developmental, M/F, generation: F1, F1: Developmental: Whole Body: External Abnormalities + F1: Developmental: Whole Body: Live Pups Born + F1: Developmental: Whole Body: Pup …
  NOAEL: 27900 mg/m3 and 83700 mg/m3
[1]; developmental, M/F, generation: F1, F1: Uterus: Fetuses, Dead + F1: Uterus: Fetuses, Live + F1: Whole Body: Body Weight, Fetal + F1: Whole Body: External Abnormalities
  NEL: 279000 mg/m3
[1]; developmental, M/F, generation: F1, F1: Whole Body: External Abnormalities + F1: Whole Body: Live Pups Born + F1: Whole Body: Pup Weight Relative to Litter + F1: Whole Body: …
  NEL: 279000 mg/m3
[1]; reproduction developmental, F, generation: P0, P0: Developmental: Uterus: Implantation + P0: Developmental: Uterus: Number of Viable Fetuses + P0: Developmental: Uterus: Pre-Implantation …
  NOAEL: 279000 mg/m3
[1]; [4]
  LOAEL: 83700 mg/m3
  NOAEL: 27900 mg/m3
[1]; reproduction developmental, F, generation: P0, P0: Developmental: Uterus: Implantation + P0: Developmental: Uterus: Pre-Implantation Loss + P0: Reproductive: Ovary: Corpora Lutea
  NOAEL: 279000 mg/m3
[1]; [5]
  LOAEL: 279000 mg/m3
  NOAEL: 83700 mg/m3
[1]; reproduction developmental, F, generation: P0, P0: Liver: Liver Weight, Absolute + P0: Liver: Liver Weight, Relative + P0: Ovary: Corpora Lutea + P0: Uterus: Implantation + P0: Uterus: …
  NEL: 279000 mg/m3
[1]; reproduction developmental, F, generation: P0, P0: Ovary: Corpora Lutea + P0: Uterus: Implantation + P0: Uterus: Pre-Implantation Loss + P0: Uterus: Resorptions, Mean/Litter + P0: Whole …
  NEL: 279000 mg/m3
[1]; [6]
  LEL: 279000 mg/m3
  NEL: 83700 mg/m3

## O=S(=O)([O-])C(F)(F)C(F)(F)C(F)(F)C(F)(F)C(F)(F)C(F)(F)C(F)(F)C(F)(F)F.[K+] [Potassium perfluorooctanesulfonate]
[2]; chronic, duration: 26 weeks, F
  NOAEL: 0.75 mg/kg-day
[2]; [7]
  LOAEL: 0.75 mg/kg-day
  NOAEL: 0.15 mg/kg-day
[2]; chronic, duration: 26 weeks, M/F, Neurological: No histological alterations
  NOAEL: 0.75 mg/kg-day
[2]; chronic, duration: 26 weeks, M, Body Weight: 13.5% reduction in final body weight
  NOAEL: 0.15 mg/kg-day
[2]; chronic, duration: 26 weeks, M, Body Weight: 13.5% reduction in final body weight + Reproductive: Significant decrease in serum estradiol on days 62 (48%), 91 (42%), and …
  LOAEL: 0.75 mg/kg-day
[2]; chronic, duration: 315 days, M
  NOAEL: 13.3 mg/kg-day
[2]; chronic, duration: 315 days, M, Endocrine: Decreased serum T4 / values still within normal range + Hepatic: Decrease in HDL cholesterol / values still within normal range
  LOAEL: 13.3 mg/kg-day
[2]; short-term, duration: 4 weeks, M/F, Immunotoxicological: No histological alteration + Reproductive: No histological alterations
  NOAEL: 2 mg/kg-day
[3]; developmental, Developmental: Decreased fetal body weight / 10% at […] and 24% at 3.75 mg/kg/day / 10/22 does aborted between GD 22 and 28 at 3.75 mg/kg/…
  NOAEL: 1 mg/kg-day
[3]; [8]
  LOAEL: 1 mg/kg-day
  NOAEL: 0.1 mg/kg-day
